Data taken from patent US7049490B2, “Gibberellin 3β-hydroxylase genes of rice and uses thereof” (priority 1999, dated 2006).
“Also recorded” adds a separate entry of the source.

Tests used:
[1] = target: T1, Os3β-2 fusion protein (Oryza sativa subsp. japonica, UniProt Q9FU53, G53R); test: Enzymatic activity assay of purified recombinant Os3β-2 fusion protein with gibberellin substrates, products identified by GC-MS; format: biochemical, rice (Oryza sativa); details: amylose-resin purified Os3β-2 fusion protein, cofactors ascorbate, ferrous iron, 2-ketoglutarate
T1 construct: a full-length cDNA is synthesized by RT-PCR using primers provided with restriction enzyme sites and subcloned into multi-cloning sites of the pMAL-c2 expression vector; made in house; host or cells: E. coli JM109
T1 sequence (Q9FU53 whole entry G53R, the tested form may be a part): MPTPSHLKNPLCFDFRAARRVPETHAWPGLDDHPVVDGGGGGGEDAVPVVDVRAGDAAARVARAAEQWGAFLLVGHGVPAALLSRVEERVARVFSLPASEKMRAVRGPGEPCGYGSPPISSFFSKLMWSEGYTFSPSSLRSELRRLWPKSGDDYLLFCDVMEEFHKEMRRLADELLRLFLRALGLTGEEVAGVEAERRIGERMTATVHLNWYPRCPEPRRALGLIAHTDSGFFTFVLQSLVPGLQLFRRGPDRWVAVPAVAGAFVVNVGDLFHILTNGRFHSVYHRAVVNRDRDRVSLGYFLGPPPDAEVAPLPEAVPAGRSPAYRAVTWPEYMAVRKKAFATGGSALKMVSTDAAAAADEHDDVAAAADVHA
Description: (§1) cDNAs for the predicted protein-coding regions of the Os3β-1 and Os3β-2 genes were each inserted into the pMAL-c2 expression vector (New England Biolabs, Beverly, Mass.) in the sense orientation to obtain a fusion translation product. The constructs thus obtained, pMAL-Os3β-1 and pMAL-Os3β-2, were expressed in E. coli strain JM109. Bacterial cells were cultured by shaking in 2×YT medium containing 100 mg/L ampicillin at 37° C. overnight. Then, the culture was diluted 100-fold with a fresh 2×YT medium containing 100 mg/L ampicillin, and further cultured with shaking at 30° C. Four hours later, IPTG was added to the culture to a final concentration of 1 mM, and the mixture was incubated with shaking at 17° C. for further 18 h. After the completion of culturing, the bacterial cells were collected, washed with a washing buffer (containing 50 mM Tris-HCl (pH 8.0), 10% (w/v) glycerol, and 2 mM DTT), suspended in the washing buffer containing lysozyme (1 mg/ml), and allowed to stand for 30 min on ice.
(§2) The cell lysate thus obtained was sonicated, centrifuged, and the supernatant was subjected to SDS-PAGE to confirm the expression of the fusion protein. For the assay of enzymatic activity of the Os3β-1 fusion protein, the supernatant was incubated with various gibberellins and cofactors (ascorbate, ferrous iron, and 2-ketoglutarate). For the activity assay of the Os3β-2 fusion protein, the supernatant was purified on a column of amylose resin according to the method described in the manual, and the purified protein thus obtained was similarly incubated as described above. Metabolized gibberellins were identified using GC-MS.

[2] = target: T2, Os3β-1 fusion protein (Oryza sativa subsp. japonica, UniProt Q6AT12, A27T/D23H/DEL15-17/DUP228-228); test: Enzymatic activity assay of recombinant Os3β-1 fusion protein with gibberellin substrates, products identified by GC-MS; format: biochemical, rice (Oryza sativa); details: E. coli supernatant with Os3β-1 fusion protein, cofactors ascorbate, ferrous iron, 2-ketoglutarate
T2 construct: a full-length cDNA is synthesized by RT-PCR using primers provided with restriction enzyme sites and subcloned into multi-cloning sites of the pMAL-c2 expression vector; made in house; host or cells: E. coli JM109
T2 sequence (Q6AT12 other isoform, or with tags, fused parts or gaps DEL15-17/D23H/A27T/DUP228-228): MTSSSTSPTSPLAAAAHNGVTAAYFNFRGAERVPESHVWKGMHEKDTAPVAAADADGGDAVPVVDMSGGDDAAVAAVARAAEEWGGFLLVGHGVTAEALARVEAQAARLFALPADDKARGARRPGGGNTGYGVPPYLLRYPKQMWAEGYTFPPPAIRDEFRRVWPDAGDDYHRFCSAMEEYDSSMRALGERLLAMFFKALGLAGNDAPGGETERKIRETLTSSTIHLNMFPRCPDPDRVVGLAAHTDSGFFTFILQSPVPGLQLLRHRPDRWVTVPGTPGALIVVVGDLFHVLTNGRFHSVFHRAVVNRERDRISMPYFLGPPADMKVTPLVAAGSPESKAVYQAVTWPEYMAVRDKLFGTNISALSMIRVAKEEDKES
Description: as §1, §2

| Structure (SMILES) | Metabolized gibberellins (reaction products) from the substrate [1] | Metabolized gibberellins (reaction products) from the substrate [2] |
| --- | --- | --- |
| C=C1C[C@]23C[C@@]1(O)CC[C@H]2[C@@]12CC=C[C@@](C)(C(=O)O1)[C@H]2[C@@H]3C(=O)O [GA5] | produced the corresponding 3β-hydroxylated gibberellins (GA3, GA4, GA1, and GA38); also recorded: production of the corresponding 3β-hydroxylated gibberellins, GA3, GA4, GA1, and GA38, respectively | only the corresponding 3β-hydroxylated gibberellins (GA3 and GA88) were obtained; also recorded: produced the corresponding 3β-hydroxylated gibberellins, GA3 and GA88, respectively |
| C=C1C[C@]23C[C@H]1CC[C@H]2[C@@]12CCC[C@@](C)(C(=O)O1)[C@H]2[C@@H]3C(=O)O [GA9] | produced the corresponding 3β-hydroxylated gibberellins (GA3, GA4, GA1, and GA38); also recorded: production of the corresponding 3β-hydroxylated gibberellins, GA3, GA4, GA1, and GA38, respectively | synthesis of GA4 (3β-hydroxylation), GA7 (2,3-unsaturation and 3β-hydroxylation), and GA34 (2β-hydroxylation) were confirmed; also recorded: catalyzed the production of GA4 (3β-hydroxylation), GA7 (2,3-unsaturation and 3β-hydroxylation), and GA34 (2β-hydroxylation) |
| C=C1C[C@]23C[C@@]1(O)CC[C@H]2[C@@]12CCC[C@@](C)(C(=O)O1)[C@H]2[C@@H]3C(=O)O [GA20] | produced the corresponding 3β-hydroxylated gibberellins (GA3, GA4, GA1, and GA38); also recorded: production of the corresponding 3β-hydroxylated gibberellins, GA3, GA4, GA1, and GA38, respectively |  |
| C=C1C[C@]23C[C@@]1(O)CC[C@H]2[C@@]12CCC[C@@](C)(C(=O)OC1)[C@H]2[C@@H]3C(=O)O [GA44] | produced the corresponding 3β-hydroxylated gibberellins (GA3, GA4, GA1, and GA38); also recorded: production of the corresponding 3β-hydroxylated gibberellins, GA3, GA4, GA1, and GA38, respectively | only the corresponding 3β-hydroxylated gibberellins (GA3 and GA88) were obtained; also recorded: produced the corresponding 3β-hydroxylated gibberellins, GA3 and GA88, respectively |
